In ChEMBL document CHEMBL4819062, “Novel iodinated quinazolinones bearing sulfonamide as new scaffold targeting radiation induced oxidative stress” (Bioorg Med Chem Lett, 2021):
Active and inactive are the calls of the source. No cut-off for these calls is given here.

What was measured:
[1] = Antioxidant activity assessed as DPPH radical scavenging activity; type: functional
[2] = target: T1, Nuclear factor erythroid 2-related factor 2 (Mus musculus) (UniProt Q60795); experiment: Activation of Nrf2 in mouse Hepa1c1c7 cells assessed as increase in NQO1 activity at 1.25 uM; type: cell-based; settings: filed as activator
T1 sequence (whole entry): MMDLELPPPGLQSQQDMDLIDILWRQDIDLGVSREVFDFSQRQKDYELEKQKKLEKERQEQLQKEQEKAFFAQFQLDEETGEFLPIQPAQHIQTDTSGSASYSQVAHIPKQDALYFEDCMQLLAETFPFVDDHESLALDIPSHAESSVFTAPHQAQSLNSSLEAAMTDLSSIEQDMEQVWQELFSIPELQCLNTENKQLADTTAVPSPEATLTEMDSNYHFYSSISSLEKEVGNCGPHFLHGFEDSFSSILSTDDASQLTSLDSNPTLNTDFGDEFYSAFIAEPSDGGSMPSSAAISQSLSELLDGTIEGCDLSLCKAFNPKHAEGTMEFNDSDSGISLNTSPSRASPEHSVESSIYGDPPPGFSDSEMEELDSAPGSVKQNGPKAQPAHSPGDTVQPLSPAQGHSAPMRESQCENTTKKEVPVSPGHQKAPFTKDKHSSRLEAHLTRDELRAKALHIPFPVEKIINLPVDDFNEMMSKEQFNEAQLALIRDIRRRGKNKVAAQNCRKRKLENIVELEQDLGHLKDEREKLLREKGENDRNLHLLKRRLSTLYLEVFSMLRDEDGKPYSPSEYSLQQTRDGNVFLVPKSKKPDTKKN

[3] = target: T1, Nuclear factor erythroid 2-related factor 2 (Mus musculus); experiment: Activation of Nrf2 in mouse Hepa1c1c7 cells assessed as increase in NQO1 activity at 10 uM; type: cell-based; settings: filed as activator
[4] = target: T1, Nuclear factor erythroid 2-related factor 2 (Mus musculus); experiment: Activation of Nrf2 in mouse Hepa1c1c7 cells assessed as increase in NQO1 activity at 5 uM; type: cell-based; settings: filed as activator
[5] = target: T1, Nuclear factor erythroid 2-related factor 2 (Mus musculus); experiment: Activation of Nrf2 in mouse Hepa1c1c7 cells assessed as increase in NQO1 activity at 0.625 uM; type: cell-based; settings: filed as activator
[6] = target: T1, Nuclear factor erythroid 2-related factor 2 (Mus musculus); experiment: Activation of Nrf2 in mouse Hepa1c1c7 cells assessed as increase in NQO1 activity at 2.5 uM; type: cell-based; settings: filed as activator
[7] = target: T1, Nuclear factor erythroid 2-related factor 2 (Mus musculus); experiment: Activation of Nrf2 in mouse Hepa1c1c7 cells assessed as increase in NQO1 activity at 0.313 uM; type: cell-based; settings: filed as activator
[8] = target: T1, Nuclear factor erythroid 2-related factor 2 (Mus musculus); experiment: Activation of Nrf2 in mouse Hepa1c1c7 cells assessed as increase in NQO1 activity at 20 uM; type: cell-based; settings: filed as activator
[9] = target: T1, Nuclear factor erythroid 2-related factor 2 (Mus musculus); experiment: Activation of Nrf2 in mouse Hepa1c1c7 cells assessed as increase in NQO1 activity at 40 uM; type: cell-based; settings: filed as activator
[10] = target: T1, Nuclear factor erythroid 2-related factor 2 (Mus musculus); experiment: Activation of Nrf2 in mouse Hepa1c1c7 cells assessed as increase in NQO1 activity at 1.6 uM; type: cell-based; settings: filed as activator
[11] = target: T1, Nuclear factor erythroid 2-related factor 2 (Mus musculus); experiment: Activation of Nrf2 in mouse Hepa1c1c7 cells assessed as increase in NQO1 activity at 3.125 uM; type: cell-based; settings: filed as activator
[12] = target: T1, Nuclear factor erythroid 2-related factor 2 (Mus musculus); experiment: Activation of Nrf2 in mouse Hepa1c1c7 cells assessed as increase in NQO1 activity at 0.4 uM; type: cell-based; settings: filed as activator
[13] = target: T1, Nuclear factor erythroid 2-related factor 2 (Mus musculus); experiment: Activation of Nrf2 in mouse Hepa1c1c7 cells assessed as increase in NQO1 activity at 12.5 uM; type: cell-based; settings: filed as activator
[14] = target: T1, Nuclear factor erythroid 2-related factor 2 (Mus musculus); experiment: Activation of Nrf2 in mouse Hepa1c1c7 cells assessed as increase in NQO1 activity at 0.8 uM; type: cell-based; settings: filed as activator
[15] = target: T1, Nuclear factor erythroid 2-related factor 2 (Mus musculus); experiment: Activation of Nrf2 in mouse Hepa1c1c7 cells assessed as increase in NQO1 activity at 6.25 uM; type: cell-based; settings: filed as activator
[16] = target: T1, Nuclear factor erythroid 2-related factor 2 (Mus musculus); experiment: Activation of Nrf2 in mouse Hepa1c1c7 cells assessed as increase in NQO1 activity at 50 uM; type: cell-based; settings: filed as activator
[17] = target: T1, Nuclear factor erythroid 2-related factor 2 (Mus musculus); experiment: Activation of Nrf2 in mouse Hepa1c1c7 cells assessed as increase in NQO1 activity at 25 uM; type: cell-based; settings: filed as activator
Mus musculus [18] = experiment: Radioprotective activity in albino mouse assessed as MDA level at 50 mg/kg, ip administered for 5 days and on day 5 irradiated with gamma radiation and measured after 3 days (reference value: 86 %); type: functional; settings: time 8 day
Mus musculus [19] = experiment: Radioprotective activity in albino mouse assessed as Nrf2 level at 50 mg/kg, ip administered for 5 days and on day 5 irradiated with gamma radiation and measured after 3 days (reference value: 23 %); type: functional; settings: time 8 day
[20] = Toxicity in albino mouse assessed as lethality; settings: in vivo
Mus musculus [21] = experiment: Radioprotective activity in albino mouse assessed as PLT level at 50 mg/kg, ip administered for 5 days and on day 5 irradiated with gamma radiation and measured after 3 days (reference value: 500.3 +/- 49.73 10^3/UL); type: functional; settings: time 8 day
Mus musculus [22] = experiment: Radioprotective activity in albino mouse assessed as organism survival rate at 50 mg/kg, ip administered for 5 days and on day 5 irradiated with gamma radiation and measured after 3 days; type: functional, organism-based; settings: time 8.0 day
[23] = Effect on HCT level in albino mouse at 50 mg/kg, ip administered for 5 days (reference value: 33.45 +/- 1.82 %); type: functional; settings: time 5 day
[24] = Effect on RBC level in albino mouse at 50 mg/kg, ip administered for 5 days (reference value: 7.17 +/- 0.15 10^6/UL); type: functional; settings: time 5 day
Mus musculus [25] = experiment: Radioprotective activity in albino mouse assessed as HCT level at 50 mg/kg, ip administered for 5 days and on day 5 irradiated with gamma radiation and measured after 3 days (reference value: 23.05 +/- 0.98 %); type: functional; settings: time 8 day
[26] = Effect on WBC level in albino mouse at 50 mg/kg, ip administered for 5 days (reference value: 2.54 +/- 0.16 10^3/UL); type: functional; settings: time 5 day
[27] = Effect on PLT level in albino mouse at 50 mg/kg, ip administered for 5 days (reference value: 1135 +/- 91.52 10^3/UL); type: functional; settings: time 5 day
Mus musculus [28] = experiment: Radioprotective activity in albino mouse assessed as effect on body weight at 50 mg/kg, ip administered for 5 days and on day 5 irradiated with gamma radiation and measured after 3 days; type: functional, organism-based; settings: time 8.0 day
Mus musculus [29] = experiment: Radioprotective activity in albino mouse assessed as WBC level at 50 mg/kg, ip administered for 5 days and on day 5 irradiated with gamma radiation and measured after 3 days (reference value: 0.40 +/- 0.03 10^3/UL); type: functional; settings: time 8 day
[30] = Effect on HGB level in albino mouse at 50 mg/kg, ip administered for 5 days (reference value: 10.75 +/- 0.63 g/dL); type: functional; settings: time 5 day
Mus musculus [31] = experiment: Radioprotective activity in albino mouse assessed as NQO1 level at 50 mg/kg, ip administered for 5 days and on day 5 irradiated with gamma radiation and measured after 3 days (reference value: 192 %); type: functional; settings: time 8 day
Mus musculus [32] = experiment: Radioprotective activity in albino mouse assessed as ROS level at 50 mg/kg, ip administered for 5 days and on day 5 irradiated with gamma radiation and measured after 3 days (reference value: 39 %); type: functional; settings: time 8 day
Mus musculus [33] = experiment: Radioprotective activity in albino mouse assessed as RBC level at 50 mg/kg, ip administered for 5 days and on day 5 irradiated with gamma radiation and measured after 3 days (reference value: 5.89 +/- 0.27 10^6/UL); type: functional; settings: time 8 day
Mus musculus [34] = experiment: Radioprotective activity in albino mouse assessed as HGB level at 50 mg/kg, ip administered for 5 days and on day 5 irradiated with gamma radiation and measured after 3 days (reference value: 7.98 +/- 0.24 g/dL); type: functional; settings: time 8 day
[35] = target: T1, Nuclear factor erythroid 2-related factor 2 (Mus musculus); experiment: Activation of Nrf2 in mouse Hepa1c1c7 cells assessed as concentration required to double induction to increase in NQO1 activity; type: cell-based; settings: filed as activator
[36] = Toxicity in albino mouse assessed as effect on liver weight at 50 mg/kg, ip administered for 5 days; type: organism-based; settings: in vivo, 120 h, time 5 day

SMILES | IC50 [1] [µM] | Activity [2] | Activity [3] | Activity [4] | Activity [5] | Activity [6] | Activity [7] | Activity [8] | Activity [9] | Activity [10] | Activity [11] | Activity [12] | Activity [13] | Activity [14] | Activity [15] | Activity [16] | Activity [17] | other results
NS(=O)(=O)c1ccc(-n2c(SCC(=O)Nc3cc(Cl)c(Cl)cc3Cl)nc3c(I)cc(I)cc3c2=O)cc1 | 59.8 | 1.05 | 1.1 | 1.08 | 1.03 | 1.07 | 1.01 | 1.25 | 1.3 | – | – | – | – | – | – | – | – | –
NS(=O)(=O)c1ccc(-n2c(SCC(=O)Nc3ccc(Cl)cn3)nc3c(I)cc(I)cc3c2=O)cc1 | 30.5 | – | – | – | – | – | – | – | – | 0.98 | 1.09 | 0.94 | 1.7 | 0.99 | 1.5 | – | – | –
NS(=O)(=O)c1ccc(-n2c(SCC(=O)Nc3ccc(F)cc3)nc3c(I)cc(I)cc3c2=O)cc1 | 158 | – | – | – | – | – | – | – | – | 0.99 | 0.99 | 0.98 | 1.06 | 1 | 1 | 1.19 | 1.13 | –
NS(=O)(=O)c1ccc(-n2c(SCC(=O)Nc3cccnc3Cl)nc3c(I)cc(I)cc3c2=O)cc1 | 28 | – | – | – | – | – | – | – | – | 1 | 1.09 | 0.99 | 1.38 | 0.98 | 1.17 | 2.65 | 2.13 | Activity (Mus musculus [18]): 32%; Activity (Mus musculus [19]): 15%; LD50 [20]: 500 mg/kg; Activity (Mus musculus [21]): 956.8 10^3 /uL; Activity (Mus musculus [22]): Active; Activity [23]: 26.86%; Activity [24]: 6.13 10^6 /uL; Activity (Mus musculus [25]): 25.83%; Activity [26]: 2.08 10^3 /uL; Activity [27]: 1030 10^3 /uL; Activity (Mus musculus [28]): Active; Activity (Mus musculus [29]): 1.34 10^3 /uL; Activity [30]: 8.54 g/dL; Activity (Mus musculus [31]): 37%; Activity (Mus musculus [32]): 23%; Activity (Mus musculus [33]): 6.37 10^6 /uL; Activity (Mus musculus [34]): 9.9 g/dL; CD [35]: 25 µM; Activity [36]: Non-Toxic
NS(=O)(=O)c1ccc(-n2c(SCC(=O)Nc3ccncc3)nc3c(I)cc(I)cc3c2=O)cc1 | 112 | – | – | – | – | – | – | – | – | 1.02 | 1.06 | 1.04 | 1.31 | 1 | 1.15 | 1.89 | 1.65 | –

The next lines start with results.

IC50 [1] [µM] | Activity [2] | Activity [3] | Activity [4] | Activity [5] | Activity [6] | Activity [7] | Activity [8] | Activity [9] | Activity [10] | Activity [11] | Activity [12] | Activity [13] | Activity [14] | Activity [15] | Activity [16] | Activity [17] | SMILES | other results
56.5 | 1.03 | 1.26 | 1.19 | 1.04 | 1.04 | 1.06 | 1.26 | 1.26 | – | – | – | – | – | – | – | – | NS(=O)(=O)c1ccc(-n2c(SCC(=O)Nc3ccc(Cl)cc3)nc3c(I)cc(I)cc3c2=O)cc1 | –
49.3 | 0.99 | 1.15 | 1.02 | 1.01 | 0.94 | 1.02 | 1.42 | 1.93 | – | – | – | – | – | – | – | – | NS(=O)(=O)c1ccc(-n2c(SCC(=O)Nc3ccc(Br)cc3)nc3c(I)cc(I)cc3c2=O)cc1 | Activity [35]: Dose-Dependent Effect; CD [35]: 40 µM
55.6 | 1.03 | 1.04 | 1.05 | 1.02 | 1.04 | 1.02 | 1.07 | 1.12 | – | – | – | – | – | – | – | – | NS(=O)(=O)c1ccc(-n2c(SCC(=O)Nc3ccc(I)cc3)nc3c(I)cc(I)cc3c2=O)cc1 | –
